Assay results taken from patent US20120165339A1, “CYCLOPROPANE DERIVATIVES” (EISAI R&D MANAGEMENT CO., LTD., priority 2010, published 2012).
Like-named read-outs stand apart in the source and are kept apart here.

Key:
OX1 [1] = target: T1, OX1 (Homo sapiens, UniProt O43613); test: Antagonism PLAP reporter assay, HEK-293 cells expressing human OX1; format: cell-based; parameters: expressed in transfected cells; host or cells: HEK-293 cell line, expression vector pBabeCLIH; conditions: HEK-293, 1 nM human OX-A; IC50 converted to Ki by Cheng-Prusoff equation
T1 sequence (O43613 1-425): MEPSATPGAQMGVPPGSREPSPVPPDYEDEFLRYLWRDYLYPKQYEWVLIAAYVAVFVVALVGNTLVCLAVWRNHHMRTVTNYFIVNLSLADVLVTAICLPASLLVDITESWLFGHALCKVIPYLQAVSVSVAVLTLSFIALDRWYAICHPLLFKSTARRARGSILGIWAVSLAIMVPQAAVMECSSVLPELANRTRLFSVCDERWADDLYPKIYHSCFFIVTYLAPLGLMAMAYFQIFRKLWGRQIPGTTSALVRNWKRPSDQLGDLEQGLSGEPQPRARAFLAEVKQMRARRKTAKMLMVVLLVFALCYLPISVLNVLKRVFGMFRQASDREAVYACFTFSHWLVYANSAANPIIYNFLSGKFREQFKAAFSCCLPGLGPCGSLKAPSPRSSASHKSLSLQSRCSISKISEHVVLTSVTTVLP
Description: (§1) The antagonistic function of the compound of the present invention to prevent the activation of OX2 and OX1 by orexin-A (OX-A), which is a natural peptide agonist, was measured using a cell-based reporter assay. A HEK-293 cell line expressing genetically recombinant human OX2 (accession No. NM_001526.3) or a HEK-293 cell line expressing genetically recombinant human OX1 (accession No. NM_001525.2), which had pBabeCLIH as expression vector, was used. The cells were plated at a density of 10,000 cells/well onto a non-coated 96-well plate in Dulbecco's modified Eagle medium (Sigma Cat No. D6046: 10% v/v heat-inactivated fetal bovine serum was contained). The cells were cultured at 37° C. overnight, so that they could adhere to the plate. On the following day, cells were incubated with a compound of the present invention dissolved in Dulbecco's modified Eagle medium (Sigma Cat No. A8806: 0.1% w/v bovine serum albumin was contained), and added to the cell plate to reach a final concentration of 0.1% dimethyl sulfoxide.
(§2) The thus obtained mixture was incubated at room temperature for 1 hour. Thereafter, human OX-A and forskolin were dissolved in the same medium as described above, which contained fetal bovine serum albumin, and the medium was then added to the cells, resulting in a final concentration of 300 nM forskolin. Subsequently, the cells were cultured at 37° C. for approximately 18 to 24 hours. During the culture, as a result of activation of the orexin receptor and subsequent dose-dependent increase in intracellular calcium concentration, a reporter enzyme, placental alkaline phosphatase (PLAP), was expressed under the control of a CRE x4+VIP promoter in a pBabeCLcre4vPdNN vector and secreted into the culture medium supernatant. On the following day, reporter enzyme activity was detected by mixing 5 ul of the culture medium supernatant with 20 ul of detection buffer (containing 1.34 g/L sodium bicarbonate, 1.27 g/L sodium carbonate and 0.2 g/L magnesium sulfate heptahydrate in water) and 25 ul of Lumi-Phos530 reagent (Wako Pure Chemical Industries Ltd.), followed by incubating the obtained mixture light-protected at room temperature for 2 hours, before performing luminescence measurement (ARVO Reader, PerkinElmer). The Kd value of human OX-A with respect to each receptor was measured by titration from 0 to 300 nM. Then, the IC50 value of the compound of the present invention with respect to the activity of 1 nM human OX-A was converted into a Ki value (nM) using the Cheng-Prusoff equation.

OX2 [2] = target: T2, OX2 (Homo sapiens, UniProt O43614); test: Antagonism PLAP reporter assay, HEK-293 cells expressing human OX2; format: cell-based; parameters: expressed in transfected cells; host or cells: HEK-293 cell line, expression vector pBabeCLIH; conditions: HEK-293, 1 nM human OX-A; IC50 converted to Ki by Cheng-Prusoff equation
T2 sequence (O43614 1-444): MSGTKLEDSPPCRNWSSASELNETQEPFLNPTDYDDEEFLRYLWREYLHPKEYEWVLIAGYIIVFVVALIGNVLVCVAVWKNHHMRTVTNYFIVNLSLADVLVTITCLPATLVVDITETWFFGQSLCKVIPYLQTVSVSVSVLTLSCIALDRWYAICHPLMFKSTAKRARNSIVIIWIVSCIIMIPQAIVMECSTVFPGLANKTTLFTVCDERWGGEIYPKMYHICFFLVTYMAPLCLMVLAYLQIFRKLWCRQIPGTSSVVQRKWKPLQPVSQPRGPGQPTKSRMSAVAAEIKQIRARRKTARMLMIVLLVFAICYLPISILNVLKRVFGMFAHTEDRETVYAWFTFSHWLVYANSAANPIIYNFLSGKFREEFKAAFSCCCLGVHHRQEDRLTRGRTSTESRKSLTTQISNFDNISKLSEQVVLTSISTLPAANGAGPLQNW
Description: as §1, §2

OX2 [3] = target: T2, OX2; test: Orexin-receptor binding ability, [125I]-OX-A, CHO cell membranes expressing OX2; parameters: expressed in transfected cells; host or cells: CHO cells (membrane preparation)
Description: (§3) The assay was carried out using a 96-well Wheat Germ Agglutinin Flash Plate (PerkinElmer). The volume in a single assay well was 100 ul, and the composition of the reaction solution was as follows:
(§4) 25 mM HEPES (pH 7.5), 1 mM CaCl2, 4.5 mM MgCl2, 0.5% BSA (bovine serum albumin), 0.1% sodium azide, 0.05% Tween-20, and 0.2% DMSO.
Cell membranes were prepared from recombinant CHO cells that expressed OX2 or OX1. The cell membranes were used in an amount of 5 μg protein/assay. Test compound in various concentrations, and 0.2 nM [^125I]-OX-A as tracer were added to the cell membranes, and then allowed to react at room temperature for 30 minutes. After completion of the reaction, the reaction solution as a whole was discarded, and the wells were then washed once with 200 ul of wash buffer (25 mM HEPES (pH 7.5), 1 mM CaCl2, 5 mM MgCl2, 0.5% BSA, 0.1% sodium azide, 0.05% Tween-20, and 525 mM sodium chloride). Finally, the radioactivity of each well was measured using a scintillation counter (TopCount, PerkinElmer). The obtained results are shown in terms of IC50 values (nM) in the following table.

OX1 [4] = target: T1, OX1; test: Orexin-receptor binding ability, [125I]-OX-A, CHO cell membranes expressing OX1; parameters: expressed in transfected cells; host or cells: CHO cells (membrane preparation); conditions: membranes of recombinant CHO cells, 0.2 nM [125I]-OX-A tracer; read-out: OX1 (IC50)
Description: as §3, §4
Cell membranes were prepared from recombinant CHO cells that expressed OX2 or OX1. The cell membranes were used in an amount of 5 μg protein/assay. […] Finally, the radioactivity of each well was measured using a scintillation counter (TopCount, PerkinElmer). The obtained results are shown in terms of IC50 values (nM) in the following table.

[5] = membranes of recombinant CHO cells, 0.2 nM [125I]-OX-A tracer, read-out: OX2 (IC50)

SMILES	Ki (OX1 [1]) [nM]	Ki (OX2 [2]) [nM]	IC50 (OX2 [3]) [nM]	IC50 (OX1 [4]) [nM]	IC50 (OX2 [3]; [5]) [nM]
CCn1cc(OC[C@@]2(c3ccccc3)C[C@H]2C(=O)Nc2ccc(F)cn2)ccc1=O (racemic) [Example 56]	158	9.1	14	160	–
COc1ccc(OCC2(c3ccccc3)CC2C(=O)Nc2ccccc2)cc1OC (stereo not drawn) [Example 1]	395	54	–	7	7
Cc1cnc(OC[C@@]2(c3ccccc3)C[C@H]2C(=O)Nc2ccc(F)cn2)c(C)n1 [Example 65]	–	–	–	57	26
Cc1cnc(OC[C@@]2(c3ccccc3)C[C@H]2C(=O)Nc2ccc(C#N)cn2)c(C)n1 [Example 66]	–	–	–	74	21
Cc1cnc(OC[C@@]2(c3ccccc3)C[C@H]2C(=O)Nc2ccc(Cl)cn2)c(C)n1 [Example 67]	–	–	–	33	7
CCn1cc(OC[C@@]2(c3ccccc3)C[C@H]2C(=O)Nc2ccccn2)c(C)n1 [Example 69]	–	–	–	2130	69
CCn1cc(OC[C@@]2(c3ccccc3)C[C@H]2C(=O)Nc2ccc(F)cc2)c(C)n1 [Example 71]	–	–	–	1310	45
Cc1nn(C)cc1OCC1(c2ccccc2)CC1C(=O)Nc1ccc(Cl)cn1 (stereo not drawn) [Example 83]	–	–	–	682	15
CCn1cc(OC[C@@]2(c3cccc(F)c3)C[C@H]2C(=O)Nc2ccccn2)c(C)n1 [Example 85]	–	–	–	59	8
CCn1cc(OC[C@@]2(c3cccc(F)c3)C[C@H]2C(=O)Nc2ccc(F)cn2)c(C)n1 [Example 86]	–	–	–	15	5
CCn1cc(OC[C@@]2(c3cccc(F)c3)C[C@H]2C(=O)Nc2ccc(F)cn2)c(C)n1 [Example 87]	–	–	–	136	21
CCn1cc(OC[C@@]2(c3cccc(F)c3)C[C@H]2C(=O)Nc2ccc(F)cc2)c(C)n1 [Example 88]	–	–	–	84	12
CCn1cc(OC[C@@]2(c3cccc(F)c3)C[C@H]2C(=O)Nc2cc(OC)c(F)cn2)c(C)n1 [Example 89]	–	–	–	> 200	93
CCn1cc(OC[C@@]2(c3cccc(F)c3)C[C@H]2C(=O)Nc2ccc(C#N)cn2)c(C)n1 [Example 90]	–	–	–	13	8
CCn1cc(OC[C@@]2(c3cccc(F)c3)C[C@H]2C(=O)Nc2ccnc(F)c2)c(C)n1 [Example 91]	–	–	–	> 200	93
COc1cncc(NC(=O)[C@@H]2C[C@@]2(COc2cc(=O)n(C)nc2C)c2ccccc2)c1 [Example 92, (1R,2S)-2-[(1,3-dimethyl-6-oxo-1,6-dihydropyridazin-4-yl)oxymethyl]-N-(5-methoxypyridin-3-yl)-2-phenylcyclopropanecarboxamide]	–	–	–	1360	5
Cc1nn(C)c(=O)cc1OC[C@@]1(c2ccccc2)C[C@H]1C(=O)Nc1ccc(F)cc1 [Example 93, (1R,2S)-2-[(1,3-dimethyl-6-oxo-1,6-dihydropyridazin-4-yl)oxymethyl]-N-(4-fluorophenyl)-2-phenylcyclopropanecarboxamide]	–	–	–	410	27
Cc1cc(NC(=O)[C@@H]2C[C@@]2(COc2cc(=O)n(C)nc2C)c2ccccc2)ncc1F [Example 94]	–	–	–	771	39
Cc1nn(C)c(=O)cc1OC[C@@]1(c2ccccc2)C[C@H]1C(=O)Nc1ccc(Cl)cn1 [Example 95]	–	–	–	1600	59
CCn1nc(C)c(OC[C@@]2(c3ccccc3)C[C@H]2C(=O)Nc2ccc(F)cc2)cc1=O [Example 98]	–	–	–	132	55
CCn1cc(CCC2(c3ccccc3)CC2C(=O)Nc2ccc(Cl)cn2)cn1 (stereo not drawn) [Example 102]	–	–	–	364	22
Cc1cc(NC(=O)[C@@H]2C[C@@]2(CCn2nc(C(F)F)nc2C)c2ccccc2)ncc1F [Example 108, (1R,2S)-2-[2-(3-difluoromethyl-5-methyl-1H-1,2,4-triazol-1-yl)ethyl]-N-(5-fluoro-4-methylpyridin-2-yl)-2-phenylcyclopropanecarboxamide]	–	–	–	101	6
Cc1nc(C(F)F)nn1CC[C@@]1(c2ccccc2)C[C@H]1C(=O)Nc1ccc(F)cn1 [Example 109]	–	–	–	1330	71
Cc1nc(C(F)F)nn1CC[C@@]1(c2ccccc2)C[C@H]1C(=O)Nc1ccc(Cl)cn1 [Example 110]	–	–	–	196	36
Cc1nc(C(F)F)nn1CC[C@@]1(c2ccccc2)C[C@H]1C(=O)Nc1ccc(F)cc1 [Example 111]	–	–	–	655	41
Cc1nc(C(F)F)nn1CC[C@@]1(c2ccccc2)C[C@H]1C(=O)Nc1ccc(C#N)cn1 [Example 112]	–	–	–	–	33
COc1nc(C)n(CCC2(c3ccccc3)CC2C(=O)Nc2ccc(Cl)cn2)n1 (stereo not drawn) [Example 116]	–	–	–	> 2000	89
COc1cn(CCC2(c3ccccc3)CC2C(=O)Nc2ccc(Cl)cn2)ccc1=O (stereo not drawn) [Example 117]	–	–	–	456	46
Cc1csc(NC(=O)[C@@H]2C[C@@]2(CCn2nc(C(F)(F)F)nc2C)c2ccccc2)n1 [Example 124]	–	–	–	2250	55
Cc1nc(C2CC2)nn1CC[C@@]1(c2ccccc2)C[C@H]1C(=O)Nc1ccc(C#N)cn1 [Example 127]	–	–	–	266	23
